Key:
human PTP-1B (1-321) = target: T1, human PTP-1B (1-321) (Homo sapiens, UniProt P18031); experiment: Determination of PTP-1B enzyme inhibitory activity (phosphopeptide substrate, malachite green); assay type: biochemical; details: each compound 100 μM; peptide substrate, 37° C., 10 min
T1 construct: ID No.2; made in house; host or cells: Escherichia coli BL21 DE3 (plasmid pET-hPTP1B (1-321), vector pET-11c)
T1 sequence (P18031 1-321): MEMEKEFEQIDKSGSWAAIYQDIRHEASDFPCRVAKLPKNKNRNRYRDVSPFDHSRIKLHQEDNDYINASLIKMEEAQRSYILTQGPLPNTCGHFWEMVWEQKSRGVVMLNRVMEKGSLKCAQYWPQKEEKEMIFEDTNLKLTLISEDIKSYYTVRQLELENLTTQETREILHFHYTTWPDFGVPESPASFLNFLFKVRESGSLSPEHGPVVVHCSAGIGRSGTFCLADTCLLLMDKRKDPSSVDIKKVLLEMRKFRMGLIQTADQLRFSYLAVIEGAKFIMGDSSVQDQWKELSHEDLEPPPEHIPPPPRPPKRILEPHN
Excerpt: As the substrates for PTP-1B enzyme reaction, synthetic peptides consisting of the following amino acid sequence: • Thr-Arg-Asp-Ile-Tyr (PO4)-Glu-Thr-Asp-Tyr (PO4)-Tyr (PO4)-Arg-Lys (SEQ; NO. 5), wherein 3 tyrosines had been all phosphorylated, were used (synthesis committed to Shimadzu Scientific Research Inc. (Chiyoda-ku, Tokyo)). [According to the amino acid numbers based on the report of Ullrich et al. (Nature, vol. 313, pages 756-761, 1985), this amino acid sequence corresponds to Nos. 1142-1153 of insulin receptor, and corresponds to Nos. 1169-1180 in the amino acid sequence of the insulin receptor precursor registered in Genbank No. X02160.]
This peptide substrate and a PTP-1B enzyme were reacted and the enzyme activity was determined by quantitation of inorganic phosphoric acid released from the substrate by the reaction. The decreased enzyme activity in the presence of a test compound during the enzyme reaction was taken as the enzyme inhibitory activity. Specifically, the following method was performed.
A peptide substrate (synthesis committed to Shimadzu Scientific Research Inc.) was dissolved in a buffer (20 mM imidazole (pH 7.0), 50 mM NaCl, 5 mM DTT and 2.5 mM EDTA) to 300 μM, and cryopreserved.
The PTP-1B solution obtained earlier was diluted with a buffer (20 mM imidazole (pH 7.0), 50 mM NaCl, 5 mM DTT, 2.5 mM EDTA, and 0.05% Nonidet P-40) to 200 ng/ml.
A 96 well microtiter plate [Costar 3695 (half area) Corning] was used and a buffer [39 μl, 20 mM imidazole (pH 7.0), 50 mM NaCl, 5 mM DTT, 2.5 mM EDTA], a PTP-1B enzyme solution (5 μl), and a solution (5 mM, 1 μl) of a test compound in dimethylsulfoxide (DMSO) were added to each well. As a control, solvent (DMSO, 1 μl) was added instead of the DMSO solution of test compound. After preincubation at 37° C. for about 10 min, a peptide substrate solution (300 μM, […]) was added and the mixture was incubated at 37° C. for 10 min.
For quantitation of released inorganic phosphoric acid, malachite green solution (90 μl, manufactured by BIOMOL Research Laboratories, Inc.) was added to each well, and the mixture was left standing at room temperature for about 10 min and the absorbance at 650 nm was measured with a microplate reader. Linearity was mostly observed between the absorbance and the phosphoric acid concentration generally within the absorbance range of from 0.05 to 0.6 (phosphoric acid from about […]) under these conditions.
The PTP-1B inhibitory activity of the test compound was obtained by the following calculation formula. Inhibitory activity (%)=[…]

[1] = target: T2, GAL4-PPARγ chimeric receptor (human PPARγ ligand binding site) (Homo sapiens, UniProt P37231); experiment: Determination of PPARγ activation ability (GAL4-PPARγ luciferase reporter assay in HEK293 cells); assay type: cell-based; details: each compound 1 μM; amount of luminescence relative to control; value greater than 1 = activation ability
T2 construct: a GAL4-PPARγ chimeric receptor containing amino acid Nos. 1-147 of yeast transcription factor GAL4 on the amino terminal and Nos. 175-475; expressed in transfected cells; host or cells: HEK293 (plasmid pM-PPARγ co-transfected with reporter pFR-Luc)
T2 sequence (P37231 with tags, fused parts or gaps): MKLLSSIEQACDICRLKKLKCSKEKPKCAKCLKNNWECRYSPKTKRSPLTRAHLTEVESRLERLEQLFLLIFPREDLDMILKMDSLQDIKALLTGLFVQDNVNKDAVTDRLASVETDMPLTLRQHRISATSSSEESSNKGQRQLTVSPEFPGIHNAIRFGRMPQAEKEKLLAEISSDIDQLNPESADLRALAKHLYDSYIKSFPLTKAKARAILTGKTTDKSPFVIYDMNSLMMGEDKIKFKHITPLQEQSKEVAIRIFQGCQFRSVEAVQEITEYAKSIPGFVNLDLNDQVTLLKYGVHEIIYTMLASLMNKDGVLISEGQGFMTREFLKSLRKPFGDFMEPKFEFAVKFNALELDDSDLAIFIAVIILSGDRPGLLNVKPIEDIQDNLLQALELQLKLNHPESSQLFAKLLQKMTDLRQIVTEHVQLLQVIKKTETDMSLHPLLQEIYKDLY
Experimental: As a method for determining the ability of a compound to activate PPARγ (hereinafter PPARγ activation ability), a test by a reporter assay was performed with reference to the report of Kliewer et al. (Journal of Biological Chemistry, 1995, vol. 270(22), p. 12953-12956).
With reference to the report of Kliewer, a gene expressing a GAL4-PPARγ receptor, wherein human PPARγ ligand binding site (corresponding to about 300 amino acids on carboxy terminal) is bound with a DNA binding site (corresponding to 147 amino acids on amino terminal region) of yeast transcription factor GAL4, was prepared.
The plasmid pM-PPARγ obtained earlier, and plasmid pFR-Luc purchased from [sequence] CLONING SYSTEMS were each dissolved in desalted water to a concentration of 1 mg/1 ml.
A human fetal kidney-derived cell line HEK293 (American Type Culture Collection CRL-1573) was sown in a 75 cm^2 culture flask, and cultured in Dulbecco's Modified Eagle medium containing 10% fetal bovine serum (hereinafter a medium) under the conditions of 37° C., 5% CO2 until it reached nearly 80% confluent.
Using 7.5 μg of plasmid pM-PPARγ and 7.5 μg of plasmid pFR-Luc, both per flask, as well as a FuGENE6 transfection reagent (manufactured by Rosch Diagnostics) the plasmids were transfected to HEK293 cells and cultured overnight.
The next day, the cells were treated with trypsin and recovered. A 96 well plate coated with poly-L-lysine (IWAKI poly-L-lysine coated 96 well plate, manufactured by ASAHI TECHNOGLASS) was prepared, the cells were sown at about 50,000 cells/well, 90 μl, using the medium and cultured overnight.
The test compound was dissolved in DMSO at a concentration of 10 mM. This was diluted 1,000-fold with the medium, and 10 μl therefrom was added to the well in which cells were growing. The treatment concentration in the cell was 1 μM. After the addition, the cells were cultured overnight.
The next day, the medium was removed, and the cells were washed with phosphate buffered saline containing 1 mM magnesium and 1 mM calcium chloride. PicaGene LT FR manufactured by Wako Pure Chemical Industries, Ltd. was diluted 2-fold with the same saline and the solution was added to each well by 200 μl. After standing the mixture for about 1 hr, it was stirred and 180 μl thereof was taken from each well and placed in a white 96 well plate (OptiPlate 96, manufactured by Packard), applied to TopCount (manufactured by Packard) and the amount of luminescence of each well was measured for 6 seconds.
The PPARγ activation ability of the test compound was determined by the following calculation formula: PPARγ activation ability=(amount of luminescence [in the presence of each compound (1 μM)]}/[amount of luminescence (control)]

male Zucker Fatty rats = experiment: Expression suppressive action on edema and the like: 2-week oral administration, insulin and blood cell parameters; assay type: in vivo, rat
Excerpt: For the test, male Zucker Fatty rats (6-week-old, Japan SLC) were used. During the acclimation period for 1 week and test period, feed (FR-2 (Funabashi Farm)) and water were freely given.
Blood was taken from the tail vain using a heparin-coated hematocrit tube and an EDTA-added hematocrit tube, and a part thereof was preserved as a whole blood and the rest was centrifuged and plasma was collected and subjected to the measurement of biochemical parameter (insulin). For insulin measurement, a rat Insulin RIA kit (US Linco) was used, and all the samples were collectively measured after the completion of administration. The whole blood sample was subjected to the measurement of blood cell parameters (erythrocyte concentration, hemoglobin concentration) using an automatic blood cell measurement apparatus (KX-21N, Sysmex Corporation).
At the beginning of the test, blood was taken from all the rats, and randomly grouped to make the parameters (body weight, erythrocyte, hemoglobin and the like) almost the same. […] The start of the administration was day 0, and the animals were fasted for about 16 hr from the evening of day 13. Blood was taken and measured for each parameter.

Row | SMILES | inhibitory activity (%) (human PTP-1B (1-321)) | PPARγ activation ability [1] | also measured
1 | CC(C)(C)N.CC=CC=CC(=O)N1Cc2cc(OCCc3nc(/C=C/CCCC)oc3C)ccc2C[C@H]1C(=O)O (stereo in doubt) [Reference Example 27, 2-(2,4-hexadienoyl)-7-{2-[2-(trans-1-hexen-1-yl)-5-methyloxazol-4-yl]ethoxy}-1,2,3,4-tetrahydroisoquinoline-(3S)-carboxylic acid tert-butylamine Salt] | 88% | 5.9 | –
2 | CC(C)(C)N.CC=CC=CC(=O)N1Cc2cc(OCCc3nc(/C(C)=C/CCC)oc3C)ccc2C[C@H]1C(=O)O (stereo in doubt) [Reference Example 33, 2-(2,4-hexadienoyl)-7-{2-[5-methyl-2-(1-methyl-trans-1-penten-1-yl)oxazol-4-yl]ethoxy}-1,2,3,4-tetrahydroisoquinoline-(3S)-carboxylic acid tert-butylamine Salt] | 92% | 6.5 | –
3 | CC(C)(C)N.CCCCC=CC(=O)N1Cc2cc(OCCc3nc(/C=C/CC(C)C)oc3C)ccc2C[C@H]1C(=O)O (stereo in doubt) [Reference Example 24, 2-(2-heptenoyl)-7-{2-[5-methyl-2-(4-methyl-trans-1-penten-1-yl)oxazol-4-yl]ethoxy}-1,2,3,4-tetrahydroisoquinoline-(3S)-carboxylic acid tert-butylamine Salt] | 92% | 9.4 | –
4 | CC(C)(C)N.CC=CC=CC(=O)N1Cc2cc(OCCc3nc(/C=C/C4CCCCC4)oc3C)ccc2C[C@H]1C(=O)O (stereo in doubt) [Reference Example 40, 7-{2-[2-(trans-2-cyclohexylvinyl)-5-methyloxazol-4-yl]ethoxy}-2-(2,4-hexadienoyl)-1,2,3,4-tetrahydroisoquinoline-(3S)-carboxylic acid tert-butylamine Salt] | 90% | 5.4 | –
5 | CC(C)(C)N.CC=CC=CC(=O)N1Cc2cc(OCCc3nc(/C=C/CCC(C)C)oc3C)ccc2C[C@H]1C(=O)O (stereo in doubt) [Reference Example 30, 2-(2,4-hexadienoyl)-7-{2-[5-methyl-2-(5-methyl-trans-1-hexen-1-yl)oxazol-4-yl]ethoxy}-1,2,3,4-tetrahydroisoquinoline-(3S)-carboxylic acid tert-butylamine Salt] | 96% | 6.2 | hemoglobin concentration (male Zucker Fatty rats; 30 mg/kg, po, once-daily, 2 consecutive weeks, FIG. 1): somewhat lower than those of the control group, but maintained at a remarkably high level as compared to the rosiglitazone administration group; insulin lowering action (blood insulin concentration) (male Zucker Fatty rats; 30 mg/kg, po, once-daily, 2 consecutive weeks, FIG. 2): equivalent to that of the rosiglitazone; erythrocyte concentration (male Zucker Fatty rats; 30 mg/kg, po, once-daily, 2 consecutive weeks, FIG. 3): somewhat lower than those of the control group, but maintained at a remarkably high level as compared to the rosiglitazone administration group; blood dilution (decrease in the concentrations of hemoglobin and erythrocyte) (male Zucker Fatty rats; compared with rosiglitazone administration group): markedly suppressed
6 | CC(C)(C)N.CC=CC=CC(=O)N1Cc2cc(OCCc3coc(/C(C)=C/CCC)n3)ccc2C[C@H]1C(=O)O (stereo in doubt) [Reference Example 83, 2-(2,4-hexadienoyl)-7-{2-[2-(1-methyl-trans-1-penten-1-yl)oxazol-4-yl]ethoxy}-1,2,3,4-tetrahydroisoquinoline-(3S)-carboxylic Acid-tert-butylamine Salt] | 82% | 3.1 | –
7 | CN(CCOc1ccc(CC2SC(=O)NC2=O)cc1)c1ccccn1 (stereo not drawn) [Rosiglitazone, reference compound] | – | – | inhibition at 100 µM (human PTP-1B (1-321)): < 10%
8 | CC(C)(C)N.CC=CC=CC(=O)N1Cc2cc(OCCc3nc(/C=C/CCCF)oc3C)ccc2C[C@H]1C(=O)O (stereo in doubt) [Reference Example 66, 7-{2-[2-(5-fluoro-trans-1-penten-1-yl)-5-methyloxazol-4-yl]ethoxy}-2-(2,4-hexadienoyl)-1,2,3,4-tetrahydroisoquinoline-(3S)-carboxylic Acid tert-butylamine Salt] | 80% | 3.0 | –
9 | CC(C)(C)N.CC=CC=CC(=O)N1Cc2cc(OCCc3nc(/C=C/C4CCCC4)oc3C)ccc2C[C@H]1C(=O)O (stereo in doubt) [Reference Example 22, 7-{2-[2-(trans-2-cyclopentylvinyl)-5-methyloxazol-4-yl]ethoxy}-2-(2,4-hexadienoyl)-1,2,3,4-tetrahydroisoquinoline-(3S)-carboxylic acid tert-butylamine Salt] | 95% | 5.1 | –

— US7718377B2, “Insulin resistance curative and method of screening the same” (Kyoto Pharmaceutical Industries, Ltd., priority 2003, dated 2010)
